Literature values as cited in US7179253B2, “Method of tattoo removal” (3M Innovative Properties Company, priority 2003, dated 2007).

System: tattoo ink pigments in tattooed regions
Settings: guinea pigs; topical 5% cream started within six hours of tattoo application, continued for seven days

Q: With CC(C)Cn1cnc2c(N)nc3ccccc3c21 [imiquimod, 1-(2-methylpropyl)-1H-imidazo[4,5-c]quinolin-4-amine] as the compound, how does the “visible tattoo pigment in the tattooed regions at the conclusion of the treatment period” value read?
A: no pigment of any color was visible
